Assay [1] can be described thus: In vivo localization capacities at 24 hr post injection in a mouse C6 intracerebral glioma model and the tumor; normal brain ratio was calculated. It counts as functional.
A short description of assay [2]: In vivo localization capacities at 6 hr post injection in a mouse C6 intracerebral glioma model and the tumor; normal brain ratio was calculated. The assay is classed as functional.

Turning to `CCOC(C)C1=C(C)c2cc3[nH]c(cc4[nH]c(cc5nc(cc1n2)C(C)=C5C(C)OCC)c(C)c4CCC(=O)O)c(CCC(=O)O)c3C` (stereo not given), the Ratio in assay [1] is recorded as 8.7; in assay [2], 17.5.
For the compound `CCOC(C)C1=C(C)c2cc3[nH]c(cc4[nH]c(cc5nc(cc1n2)C(C)=C5C(C)OCC)c(C)c4CCC(=O)NCCN(C)C)c(CCC(=O)NCCN(C)C)c3C` (stereo not given), the Ratio in assay [1] is 6.4; in assay [2], 2.4.
The corresponding values for `CC1=C(C(C)SCC(=O)O)c2cc3nc(cc4[nH]c(cc5[nH]c(cc1n2)c(C)c5CCC(=O)O)c(CCC(=O)O)c4C)C(C(C)SCC(=O)O)=C3C` (stereo not given) are 28.2 and 23.
As for `CCOCCOC(C)C1=C(C)c2cc3[nH]c(cc4[nH]c(cc5nc(cc1n2)C(C)=C5C(C)OCCOCC)c(C)c4CCC(=O)NCCN(C)C)c(CCC(=O)NCCN(C)C)c3C` (stereo not given), the Ratio in assay [1] is 8; in assay [2], 15.2.
The corresponding values for `CCOCCOC(C)C1=C(C)c2cc3[nH]c(cc4[nH]c(cc5nc(cc1n2)C(C)=C5C(C)OCCOCC)c(C)c4CCC(=O)O)c(CCC(=O)O)c3C` (stereo not given) are 25.1 and 37.7.
